Results from ChEMBL document CHEMBL1149068, “Comparison of the anti-herpes simplex virus activities of propolis and 3-methyl-but-2-enyl caffeate” (1994).

Assays:
Assay type in all cases: functional
Human alphaherpesvirus 1 [1] = assay: Antiviral activity against HSV1 H29S in african green monkey Vero cells assessed as log reduction in viral titers after 0.001 multiple round of replication at 50 ug/ml after 72 hrs
Human alphaherpesvirus 1 [2] = assay: Antiviral activity against HSV1 H29S in african green monkey Vero cells assessed as log reduction in viral titers after 1 multiple round of replication at 12.5 ug/ml after 72 hrs
Human alphaherpesvirus 1 [3] = assay: Antiviral activity against HSV1 H29S in african green monkey Vero cells assessed as log reduction in viral titers after 1 multiple round of replication at 50 ug/ml after 72 hrs
Human alphaherpesvirus 1 [4] = assay: Antiviral activity against HSV1 H29S in african green monkey Vero cells assessed as log reduction in viral titers after 1 multiple round of replication at 6.25 ug/ml after 72 hrs
Human alphaherpesvirus 1 [5] = assay: Antiviral activity against HSV1 H29S in african green monkey Vero cells assessed as log reduction in viral titers after 0.001 multiple round of replication at 12.5 ug/ml after 72 hrs
Human alphaherpesvirus 1 [6] = assay: Antiviral activity against HSV1 H29S in african green monkey Vero cells assessed as log reduction in viral titers after 0.001 multiple round of replication at 25 ug/ml after 72 hrs
Human alphaherpesvirus 1 [7] = assay: Antiviral activity against HSV1 H29S in african green monkey Vero cells assessed as log reduction in viral titers after 1 multiple round of replication at 25 ug/ml after 72 hrs
Human alphaherpesvirus 1 [8] = assay: Antiviral activity against HSV1 H29S in african green monkey Vero cells assessed as log reduction in viral titers after 0.001 multiple round of replication at 6.25 ug/ml after 72 hrs
Human alphaherpesvirus 1 [9] = assay: Antiviral activity against HSV1 H29S in african green monkey Vero cells assessed as reduction in viral DNA synthesis after 1 multiple round of replication at 30 ug/ml after 18 hrs by agarose gel electrophoresis relative to control
Human alphaherpesvirus 1 [10] = assay: Antiviral activity against HSV1 H29S in african green monkey Vero cells assessed as reduction in viral DNA synthesis after 1 multiple round of replication at 60 ug/ml after 18 hrs by agarose gel electrophoresis relative to control
Influenza A virus = assay: Antiviral activity against influenza A virus Hong Kong assessed as reduction in viral titers of reproduction at 100 ug/ml

| Compound | Activity (Human alphaherpesvirus 1 [1]) | Activity (Human alphaherpesvirus 1 [2]) | Activity (Human alphaherpesvirus 1 [3]) | Activity (Human alphaherpesvirus 1 [4]) | Activity (Human alphaherpesvirus 1 [5]) | Activity (Human alphaherpesvirus 1 [6]) | Activity (Human alphaherpesvirus 1 [7]) | Activity (Human alphaherpesvirus 1 [8]) | fold change (FC) (Human alphaherpesvirus 1 [9]) | fold change (FC) (Human alphaherpesvirus 1 [10]) | Selectivity Index (Influenza A virus) |
| --- | --- | --- | --- | --- | --- | --- | --- | --- | --- | --- | --- |
| CC(C)=CCOC(=O)/C=C/c1ccc(O)c(O)c1 (stereo in doubt; form 1) [PRENYL CAFFEATE] | 3.1 | 1.5 | 2.5 | 1 | 1.1 | 2 | 2.5 |  |  |  |  |
| CC(C)=CCOC(=O)/C=C/c1ccc(O)c(O)c1 (stereo in doubt; form 2) [PRENYL CAFFEATE] | 3.6 | 2.5 | 2.8 | 1.75 | 1.25 | 3.25 | 2.8 | 0.6 | 8 | 32 |  |
| Nc1nc2c(ncn2COCCO)c(=O)[nH]1 [ACYCLOVIR] | 3.25 |  |  |  | 3 | 3 |  | 2 |  |  |  |
| COc1cc(/C=C/C(=O)OCCC(C)C)ccc1O [ISOPENTYL FERULATE] |  |  |  |  |  |  |  |  |  |  | 8 |
